Results published in patent publication US20250066736A1, “HIGH-THROUGHPUT 3D CELL SPHEROID CULTURE CHIP, PREPARATION PROCESS AND USES THEREOF” (National Taiwan University, priority 2023, published 2025).

System: hepatocytes
Assay: In vitro liver fibrosis/toxicity model: relative cell viability of hepatocytes with CCl4-induced injury
Assay type: cell-based, Sprague Dawley rats
Details: for relative cell viability: 24 h (day 1)
Description: The procedure regarding in vitro liver fibrosis model is as follows. To create an in vitro toxicity model, we used CCl4 as a known hepatotoxic agent capable of inducing severe hepatotoxicity, ultimately leading to liver fibrosis. Initially, a stock solution of CCl4 was prepared by dissolving it in DMSO to a concentration of 20%. Subsequently, hepatocytes were aliquoted into 15-mL centrifuge tubes. These hepatocytes were subjected to a 10-min toxication process with CCl4 (0.05, 0.075, 0.1, 0.15, 0.2%)-containing culture medium (serum-free). Subsequently, hepatocytes were washed three times with PBS with centrifugation at 50×g for 1 min at 4° C. Thereafter, the supernatant was carefully removed, and the final cell pellet was seeded onto 0.1 mg/mL collagen-coated Petri dish at a density of 5×10^5 cells/mL.
The procedure regarding relative cell viability and liver-specific function of in vitro HUVEC-covered hepatocyte spheroids embedded in gel cultures is as follows. To assess relative cell viability, separate media formulations were used for 2D dish and 3D gel cultures. Specifically, 10% MTT-containing medium was used for the 2D dish culture, whereas 10% CCK8-containing medium was used for evaluating the cell viability in 3D hydrogel or spheroids. For MTT analysis, after 4-h incubation, half of the supernatant was removed from each well, and an equivalent volume of DMSO was added. Following an additional 10 min of incubation, absorbance was measured at 570 nm. For CCK8 analysis, after 4 h of incubation, 100 μL of the supernatant was transferred to a 96-well plate, and absorbance was measured at 450 nm. To calculate relative cell viability from days 1 to 14, the absorbance value of hepatocytes (or hepatocyte spheroids) in the control group (only gel without cells) measured on day 1 was used as baseline (blank) to exclude the influence of the gel. The absorbance value of each experimental condition was then divided by the value of the blank to obtain relative cell viability.

Which results are given for ClC(Cl)(Cl)Cl [CCl4, Carbon tetrachloride]?
relative cell viability (CCl4 concentration 0.05%): 60.53%±3.19%; relative cell viability (CCl4 concentration 0.075%): 51.70%±5.99%; relative cell viability (CCl4 concentration 0.1%): 28.06%±2.29%; relative cell viability (CCl4 concentration 0.15%): 2.67%±0.25%; relative cell viability (CCl4 concentration 0.2%): 2.46%±0.63%; half-maximal inhibitory concentration (IC50) for hepatocytes (estimated from viability at 24 h): 0.075%
